Tested on: human sperm
Assay: CASA (Computer Assisted Sperm Analysis) assay of human sperm motility
Assay type: cell-based
Conditions: n = 4 donors, read-out: average relative motility index (RMI) IC50
Method: Human semen samples were obtained from the Department of Obstetrics and Gynecology, University of North Carolina Memorial Hospital, Chapel Hill, NC. […] Semen samples were allowed to liquefy for 30 minutes and subjected to standard semen analysis to determine acceptability before freezing. All samples were stored in liquid nitrogen, and de-identified by the Department of Obstetrics and Gynecology, University of North Carolina Memorial Hospital, Chapel Hill, NC before further processing. A density gradient (Isolate catalog number 99264, Irving Scientific, Irving CA, or SpermCare catalog number 2221 and 2222, InvitroCare Inc., Frederick MD) was used to prepare spermatozoa for further analysis. At least 3 independent experiments were done per assay, each using a single donor.
Computer Assisted Sperm Analysis (CASA) was conducted as previously described. Briefly sperm were washed after the density gradient with EP buffer-0.4% BSA and resuspended in modified M16 for compound treatments. Sperm were diluted to 5 x 10^6/mL in 12x75 mm glass tubes with the appropriate treatment and incubated at 37°C in 5% CO2. […] The relative mobility index (RMI) is a measure of the effect of compound on sperm and is calculated as the VSL x %normal motility and normalized to the appropriate DMSO control.

## COC(=O)NNc1nc(Nc2ccc(NC(C)=O)c(O)c2)nc(SCC(=O)O)n1 [EP055]
  IC50: 200 µM
